Experimental data from patent US7622462B2, “Benzazepine derivatives and uses thereof” (Roche Palo Alto LLC, priority 2006, dated 2009).

What was measured:
Format in all cases: binding
[1] = target: T1, hSERT transporter (Homo sapiens, UniProt P31645); test: Human serotonin transporter (hSERT) scintillation proximity assay, competition with [3H]-Citalopram; settings: membranes of HEK-293 cells expressing recombinant hSERT, Cheng-Prusoff
T1 construct: expressed in transfected cells; membrane preparation
T1 sequence (P31645 whole entry): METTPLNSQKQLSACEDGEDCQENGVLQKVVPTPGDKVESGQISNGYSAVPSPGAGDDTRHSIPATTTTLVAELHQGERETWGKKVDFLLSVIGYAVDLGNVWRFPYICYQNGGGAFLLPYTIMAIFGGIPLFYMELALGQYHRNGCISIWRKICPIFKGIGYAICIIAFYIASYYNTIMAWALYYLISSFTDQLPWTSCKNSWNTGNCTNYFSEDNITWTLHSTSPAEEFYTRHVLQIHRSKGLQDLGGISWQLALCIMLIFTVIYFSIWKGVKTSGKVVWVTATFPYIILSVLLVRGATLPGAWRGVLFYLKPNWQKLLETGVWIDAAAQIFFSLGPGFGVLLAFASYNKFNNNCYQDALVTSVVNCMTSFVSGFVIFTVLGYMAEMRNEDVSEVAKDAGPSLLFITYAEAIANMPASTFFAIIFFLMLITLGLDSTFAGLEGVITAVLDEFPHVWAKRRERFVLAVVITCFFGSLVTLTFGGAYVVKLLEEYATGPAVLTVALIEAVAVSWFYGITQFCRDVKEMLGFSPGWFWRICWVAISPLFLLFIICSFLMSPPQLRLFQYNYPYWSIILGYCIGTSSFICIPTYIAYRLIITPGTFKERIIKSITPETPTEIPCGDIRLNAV
Description: The screening assay of this example was used to determine the affinity of ligands at the hSERT transporter by competition with [^3H]-Citalopram.
Scintillation Proximity Assay (SPA) works by bringing radioligand within close proximity to the bead's scintillant to stimulate light emission. In this assay, the receptor-containing membranes were pre-coupled to the SPA beads and the binding of the appropriate radioligand to the transporter was measured. The light emission was proportional to the amount of bound radioligand. Unbound radioligand produced no signal as a result of distant proximity to scintillant (lack of energy transfer). […]
(§1) Cell membranes were prepared using a membrane preparation buffer of 50 mM TRIS (pH 7.4). […] After a second centrifugation, the pellet was re-homogenized and brought to a final volume determined during the assay. […]
The % inhibition was calculated for each compound tested [(Compound counts per minute (CPM) at maximum concentration-Non-Specific CPM)/Total CPM*100]. […]
(§2) [formula] where max=total binding, min=non specific binding, x=concentration (M) of the tested compound and n=Hill slope. The inhibition dissociation constant (Ki) of each compound was determined according to the method of Cheng-Prusoff and then converted into negative logarithm (pKi) of the Ki.

[2] = target: T2, hNET transporter (Homo sapiens, UniProt P23975); test: Human norepinephrine transporter (hNET) scintillation proximity assay, competition with [3H]-Nisoxetine; settings: membranes of HEK-293 cells expressing recombinant hNET, Cheng-Prusoff
T2 construct: expressed in transfected cells; membrane preparation
T2 sequence (P23975 whole entry): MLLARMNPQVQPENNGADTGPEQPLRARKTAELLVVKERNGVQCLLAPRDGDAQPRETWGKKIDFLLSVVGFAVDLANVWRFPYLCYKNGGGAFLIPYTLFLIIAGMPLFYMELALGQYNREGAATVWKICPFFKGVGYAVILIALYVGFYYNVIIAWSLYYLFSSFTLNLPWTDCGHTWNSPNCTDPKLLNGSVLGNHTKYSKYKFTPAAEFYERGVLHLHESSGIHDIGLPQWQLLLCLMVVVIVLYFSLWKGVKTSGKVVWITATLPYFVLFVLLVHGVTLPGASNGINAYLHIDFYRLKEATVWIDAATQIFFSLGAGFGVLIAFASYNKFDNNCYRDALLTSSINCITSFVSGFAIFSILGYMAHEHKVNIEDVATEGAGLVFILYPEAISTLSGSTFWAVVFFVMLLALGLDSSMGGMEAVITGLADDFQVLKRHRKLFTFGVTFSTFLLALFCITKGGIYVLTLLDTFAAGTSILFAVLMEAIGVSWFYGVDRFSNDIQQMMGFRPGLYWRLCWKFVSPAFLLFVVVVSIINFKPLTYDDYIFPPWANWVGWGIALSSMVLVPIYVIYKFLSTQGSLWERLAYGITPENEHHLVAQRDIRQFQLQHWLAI
Description: This assay was used to determine the affinity of ligands for the hNET transporter by competition with [^3H]-Nisoxetine. As in the hSERT assay of the above example, receptor-containing membranes were pre-coupled to the SPA beads and the binding of the appropriate radioligand to the transporter was measured. The light emission was proportional to the amount of bound radioligand, with unbound radioligand producing no signal.
HEK-293 cells (Tatsumi et al., Eur. J. Pharmacol. 1997, 30, 249-258) stably expressing recombinant hNET (Clone: HEK-hNET #2) were maintained with media (DMEM hi glucose with 10% FBS, 300 μg/ml G418 and 2 mM L-Glutamine) and incubated at 37° C. with 5% CO2. Cells were released from culture flasks using PBS for 1-2 minutes. […]
as §1
^3[H] […] The mixtures were allowed to stand at room temperature for one hour, and were then counted on a Packard TopCount LCS, a generic SPA counting protocol settings (Energy Range: Low, Efficiency Mode: Normal, Region A: 1.50-35.00, Region B: 1.50-256.00, Count Time (min.): 0.40, Background Subtract: none, Half-Life Correction: no, Quench Indicator: tSIS, Platemap blank subtraction: No, Cross talk reduction: Off). […]

[3] = target: T3, human dopamine transporter (hDAT) (Homo sapiens, UniProt Q01959); test: Human dopamine transporter scintillation proximity assay, competition with [3H]-Vanoxerine; settings: HEK-293 cells expressing recombinant hDAT; [3H]-Vanoxerine (GBR 12909); Cheng-Prusoff
T3 construct: expressed in transfected cells; whole cells plated on Cell-Tak coated 96 well plates
T3 sequence (Q01959 whole entry): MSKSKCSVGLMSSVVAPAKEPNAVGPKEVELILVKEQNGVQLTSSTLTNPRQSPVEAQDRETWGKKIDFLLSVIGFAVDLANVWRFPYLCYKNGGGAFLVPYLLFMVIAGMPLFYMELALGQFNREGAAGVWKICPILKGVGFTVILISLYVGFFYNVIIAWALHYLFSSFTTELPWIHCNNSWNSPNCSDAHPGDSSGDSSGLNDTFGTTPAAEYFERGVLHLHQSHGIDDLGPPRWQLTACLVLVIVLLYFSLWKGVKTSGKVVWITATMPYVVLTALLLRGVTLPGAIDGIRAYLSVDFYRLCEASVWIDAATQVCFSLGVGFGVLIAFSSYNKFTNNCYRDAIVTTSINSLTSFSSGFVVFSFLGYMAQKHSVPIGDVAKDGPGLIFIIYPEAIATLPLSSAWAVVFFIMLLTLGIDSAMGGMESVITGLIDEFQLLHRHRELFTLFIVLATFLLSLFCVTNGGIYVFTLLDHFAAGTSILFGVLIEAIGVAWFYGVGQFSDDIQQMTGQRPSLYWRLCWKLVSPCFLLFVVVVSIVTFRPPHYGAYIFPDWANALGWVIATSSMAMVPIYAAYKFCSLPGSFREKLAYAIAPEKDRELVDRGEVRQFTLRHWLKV
Description: This assay was used to determine the affinity of ligands for the dopamine transporter by competition with [^3H]-Vanoxerine.
HEK-293 cells (Tatsumi et al., Eur. J. Pharmacol. 1997, 30, 249-258) stably expressing recombinant hDAT were maintained with media (DMEM hi glucose with 10% FBS, 300 μg/ml G418 and 2 mM L-Glutamine) and incubated at 37° C. with 5% CO2. Cells were plated four hours prior to experiment by placing approximately 30,000 cells per well (in PBS) on white, opaque Cell-Tak coated 96 well plates. Extra buffer was apriated from the cell plates using an ELx405 plate washer.
^3[H] vanoxerine (GBR 12909) radioligand, specific activity approximately 59 Ci/mmol, stock concentration, 400 nM, and 50 mM Tris-HCl, 300 mM NaCl, (pH 7.4) buffers were used for Scintillation Proximity Assay IC50/Ki determination. […]
The % inhibition was calculated for each compound tested [(Compound CPM at maximum concentration-Non-Specific CPM)/Total CPM*100]. […]
as §2

Ki [1]: ~126 nM | Ki [2]: ~10 nM | Ki [3]: ~2 nM
SMILES: c1ccc2c(c1)CNCCC2c1ccc2[nH]ccc2c1 (stereo not drawn) [5-(1H-Indol-5-yl)-2,3,4,5-tetrahydro-1H-benzo[c]azepine]
